One data set relates to periodontal disease. Briefly: Clinical trial III: calcium resorption - periodontal disease. The conditions noted are these: ca. 400 to 1200 mg p.o./day or injection ca. 0.5 or 1.0 to 5.0 mg per gum pouch; after ca. 2 to 3 weeks. The data set is classed as in vivo, human. As to the method: COMPOUND OF THE INVENTION, e.g. compound D2 or K1 in substantially pure Z-isomeric form, is administered at dosages of from ca. 400 to 1200 mg/p.o./day administered once or in divided dosages up to 4x daily, or by injection into the gum at the site of disease at dosages of the order of about 0.5 or 1.0 to about 5.0 mg into each gum pouch. The subjects are examined at regular weekly or 2x weekly intervals for disease progression.

A further data set relates to lysozyme. Briefly: Secretion of lysozyme from human monocytes. The format is cell-based. The settings on record: human monocyte culture media. As to the method:
Culture media from human monocytes are prepared as disclosed above. Lysozyme and lactate dehydrogenase (LDH) are monitored kinetically by using a Twinreader (Flow Laboratories AG) linked to a personal computer. Samples (50 μl) for LOH are mixed with 200 μl substrate mixture, containing in final concentrations 50 mM phosphate buffer, pH 7.5, 0.8 mM sodium pyruvate, 0.24 mM NADH and 0.04 % bovine albumin and the changes in absorbance at 340 nm are measured 11 times at 1-min intervals. The computer calculates the initial velocities which are used to determine the units. Samples (50 μl) for lysozyme are mixed with 100 μl suspension of 1.2 mg/ml M. Lysodeikticus in 67 mM phosphate buffer pH 6.2 and the changes in turbidity at 492 nm monitored 11 times at 4-min intervals. With every assay series, a calibration curve is made with crystalline hen egg-white lysozyme [J. Schnyder et.al., J. Exp. Med. 148, 435 (1978)]. No significant leakage of LDH from control and treated cell cultures is observed.

Data set [1] can be described thus: Acute toxicity (LD50) in mice. The conditions noted are these: mouse, in vivo, substantially pure Z-isomeric form.

Regarding `COC1=Cc2ccccc2/C(=C/C(=O)O)c2ccsc21` [Compound D2, [10-Methoxy-4H-benzo[4,5]cyclohepta[1,2-b]thiophen-4-ylidene]-acetic acid], the “condition (periodontal disease)” value in the data set with periodontal disease is given as “marked improvement in condition after ca. 2 to 3 weeks continuous therapy”. In addition, the release of lysozyme entry in the data set on lysozyme was “reduces the release of lysozyme only marginally and not under the level of unstimulated controls”. Moreover, the LD50 at 168 h in data set [1] (iv, 7 days) is 163 mg/kg. The molecule further yielded an LD50 at 336 h in data set [1] (po, 14 days) of 1620 mg/kg.

By LD50 is commonly meant the dose expected to kill half of the subjects tested. A low value points to greater toxicity.

The record behind these values is patent publication US4956381A, “Treating tissue calcium depletion or degenerative processes in bone or cartilage” (Sandoz Ltd., priority 1987, dated 1990).
